Laboratory results reported in patent US20190159451A1, “ACTIVE COMPOUND COMBINATIONS AND METHODS TO PROTECT THE PROPAGATION MATERIAL OF PLANTS” (Bayer CropScience Aktiengesellschaft, priority 2016, published 2019).

Key:
[1] = Log P (HCOOH); format: physicochemical; details: HCOOH (formic acid); read-out: Log P-Wert (HCOOH)
[2] = test system: Lucilia cuprina; experiment: Lucilia cuprina test (LUCICU); format: in vivo; details: 48 h
Protocol: Lucilia cuprina—Test (LUCICU)
(§1) Solvent: dimethyl sulfoxide
10 mg active compound are dissolved in 0.5 ml Dimethylsulfoxid. Serial dilutions are made to obtain the desired rates.
Approximately 20 1st instar larvae of the Australian sheep blowfly (Lucilia cuprina) are transferred into a test tube containing minced horse meat and compound solution of the desired concentration.
After 2 days mortality in % is determined. 100% means all the larvae have been killed; 0% means none of the larvae have been killed.

[3] = test system: Diabrotica balteata; experiment: Diabrotica balteata spray test; format: in vivo; details: 160 μg/well, after 7 days, larvae on germinated wheat seeds
Protocol: Diabrotica balteata—Spray Test
(§2) Solvent: 78.0 parts by weight of acetone • • 1.5 parts by weight of dimethylformamide
(§3) Emulsifier: alkylarylpolyglycol ether
(§4) To produce a suitable preparation of active compound, 1 part by weight of active compound is mixed with the stated amount of solvent, and the concentrate is diluted with water, containing an emulsifier concentration of 1000 ppm, to the desired concentration. Further test concentrations are prepared by dilution with emulsifier containing water.
Soaked wheat seeds (Triticum aestivum) are placed in a multiple well plate filled with agar and some water and are incubated for 1 day to germinate (5 seeds per well). The germinated wheat seeds are sprayed with a test solution containing the desired concentration of the active ingredient. Afterwards each unit is infected with 10-20 larvae of the banded cucumber beetle (Diabrotica balteata).
After 7 days efficacy in % is determined. 100% means all the seedlings have grown up like in the untreated, uninfected control; 0% means none of the seedlings have grown.

[4] = test system: Musca domestica; experiment: Musca domestica test (MUSCDO); format: in vivo; details: for mortality: after 2 days, adult house flies
Protocol: Musca domestica—Test (MUSCDO)
as §1
To produce a suitable preparation of active compound, 10 mg of active compound are dissolved in 0.5 ml solvent, and the concentrate is diluted with water to the desired concentration.
10 adult house flies (Musca domestica) are transferred into a container, containing a sponge soaked with a mixture of sugar solution and compound solution of the desired concentration.
After 2 days mortality in % is determined. 100% means all the flies have been killed; 0% means none of the flies have been killed.

[5] = test system: Myzus persicae; experiment: Myzus persicae spray test; format: in vivo; details: for mortality: 100 g/ha, after 6 days, Chinese cabbage leaf disks
Protocol: Myzus persicae—Spray Test
(§5) Solvent: 78.0 parts by weight acetone • 1.5 parts by weight dimethylformamide
as §3
as §4, with “solvents” for “solvent,”, “and” for “and the concentrate”
Chinese cabbage (Brassica pekinensis) leaf disks infected with all instars of the green peach aphid (Myzus persicae), are sprayed with a preparation of the active ingredient of the desired concentration.
After 6 days mortality in % is determined. 100% means all aphids have been killed and 0% means none of the aphids have been killed.

[6] = test system: Ctenocephalides felis; experiment: Ctenocephalides felis in-vitro contact test, adult cat flea; format: in vivo; details: 5 μg/cm^2 (=500 g/ha), after 48 hours
Protocol: Ctenocephalides felis—In-Vitro Contact Tests Adult Cat Flea
9 mg compound is solved in 1 ml acetone and diluted with acetone to the desired concentration. 250 μl of the test solution is filled in 25 ml glass test tubes and homogeneously distributed on the inner walls by rotation and tilting on a shaking device (2 h at 30 rpm). With a compound concentration of 900 ppm, an inner surface of 44.7 cm^2 and a homogeneous distribution, a dose of […] is achieved.
After the solvent has evaporated, each test tube is filled with 5-10 adult cat fleas (Ctenocephalides felis), closed with a perforated lid and incubated in a lying position at room temperature and relative humidity. After 48 hours efficacy is determined. The fleas are patted on the ground of the tubes and are incubated on a heating plate at 45-50° C. for at most 5 minutes. Immotile or uncoordinated moving fleas, which are not able to escape the heat by climbing upwards, are marked as dead or moribund.
An efficacy of 100% means all fleas are dead or moribund; 0% means no fleas are dead or moribund.

[7] = test system: Myzus persicae; experiment: Myzus persicae oral test; format: in vivo
Protocol: Solvent: 100 parts by weight acetone
To produce a suitable preparation of active compound, 1 part by weight of active compound is mixed with the stated amount of solvent, and the concentrate is diluted with water to the desired concentration. 50 μl compound solution is filled in microtiter plates and 150 μl IPL41 insect medium (33%+15% sugar) is added to obtain a total volume of […] per well. Afterwards the plates are sealed with parafilm through which a mixed population of the green peach aphid (Myzus persicae) can suck on the compound preparation.
After 5 days mortality in % is determined. 100% means all aphids have been killed and 0% means none of the aphids have been killed.

[8] = test system: Nilaparvata lugens; experiment: Nilaparvata lugens spray test; format: in vivo
Protocol: Nilaparvata lugens—Spray Test
as §2, §3
as §4, with “solvents” for “solvent,”, “and” for “and the concentrate”
Rice plants (Oryza sativa) are sprayed with a preparation of the active ingredient of the desired concentration and the plants are infested with the brown planthopper (Nilaparvata lugens).
After 4 days mortality in % is determined. 100% means all planthoppers have been killed and 0% means none of the planthoppers have been killed.

[9] = test system: Nezara viridula; experiment: Nezara viridula spray test; format: in vivo
Protocol: Nezara viridula—Spray Test
as §2, §3, §4
Barley plants (Hordeum vulgare) infested with larvae of the southern green stink bug (Nezara viridula) are sprayed with a test solution containing the desired concentration of the active ingredient.
After 4 days mortality in % is determined. 100% means all the stink bugs have been killed; 0% means none of the stink bugs have been killed.

[10] = test system: Tetranychus urticae; experiment: whole plant or invertebrate; format: in vivo; details: in Phaseolus vulgaris, foliar, 144 h
Protocol: Tetranychus urticae—Spray Test OP-Resistant
as §5, §3
as §4, with “solvents” for “solvent,”, “and” for “and the concentrate”
French bean (Phaseolus vulgaris) leaf disks infected with all instars of the two spotted spidermite (Tetranychus urticae), are sprayed with a preparation of the active ingredient of the desired concentration.
After 6 days mortality in % is determined. 100% means all spider mites have been killed and 0% means none of the spider mites have been killed.

[11] = test system: Phaedon cochleariae; experiment: Phaedon cochleariae spray test; format: in vivo; details: 20 g/ha, after 7 days, larvae on Chinese cabbage leaf disks
Protocol: Phaedon cochleariae—Spray Test
as §2, §3
as §4, with “solvents” for “solvent,”, “and” for “and the concentrate”
Chinese cabbage (Brassica pekinensis) leaf disks are sprayed with a preparation of the active ingredient of the desired concentration. Once dry, the leaf disks are infested with mustard beetle larvae (Phaedon cochleariae).
After 7 days mortality in % is determined. 100% means all beetle larvae have been killed and 0% means none of the beetle larvae have been killed.

[12] = Myzus persicae, in Brassica rapa, foliar, 144 h

With O=C(/C=C1\SCCN1Cc1ccc(Cl)nc1)C(F)(F)F [Example I-1, 3-[3-[(6-Chloro-3-pyridinyl)methyl]-2-thiazolidinylidene]-1,1,1-trifluoro-2-propanone] the chromatographic logP [1] was 2.21, the mortality at 100 ppm [2] was 100% and the “efficacy (seedlings grown)” value [3] was 100%. For the same compound, the mortality at 4 ppm ([4]; Musca domestica, 48 h) was 90%, the mortality at 100 g/ha [5, 12] was 90% and the “efficacy (fleas dead or moribund)” value [6] was 100%.
O=C(/C=C1\SCCN1Cc1ccc(F)nc1)C(F)(F)F [Example I-2, 3-[3-[(6-Fluoro-3-pyridinyl)methyl]-2-thiazolidinylidene]-1,1,1-trifluoro-2-propanone] gave a chromatographic logP [1] of 2.25, a mortality at 20 ppm ([7]; Myzus persicae, po, 120 h) of 100% and a mortality at 100 ppm [2] of 100%. The mortality at 500 g/ha ([8]; Nilaparvata lugens, in Oryza sativa, 96 h) was 100%, the “efficacy (seedlings grown)” value [3] was 100% and the mortality at 500 g/ha ([9]; Nezara viridula, in Hordeum vulgare, 96 h) was 90%. It also gave a mortality at 4 ppm ([4]; Musca domestica, 48 h) of 80%, a mortality at 20 ppm ([4]; Musca domestica, 48 h) of 95% and a mortality at 500 g/ha [10] of 80%. The mortality at 500 g/ha [5, 12] was 100% and the “efficacy (fleas dead or moribund)” value [6] was 100%.
For O=C(/C=C1\NCCN1Cc1ccc(Br)nc1)C(F)(F)F [Example I-3, 3-[1-[(6-Bromo-3-pyridinyl)methyl]-2-imidazolidinylidene]-1,1,1-trifluoro-2-propanone], the mortality at 100 ppm [2] was 100%, the “efficacy (seedlings grown)” value [3] was 100% and the mortality at 4 ppm ([4]; Musca domestica, 48 h) was 80%. For the same compound, the mortality at 100 g/ha [5, 12] was 90% and the “efficacy (fleas dead or moribund)” value [6] was 100%.
In the case of O=C(C=C1SCCN1Cc1ccc(Br)nc1)C(F)(F)F [Example I-4], the “efficacy (seedlings grown)” value [3] is reported as 100%, the mortality ([4]; 4 ppm) is reported as 100% and the “efficacy (fleas dead or moribund)” value [6] is reported as 100%.
With O=C(C=C1NCCN1Cc1ccc(Cl)nc1)C(F)(F)F [Example I-5] the mortality ([4]; 4 ppm) was 100% and the “efficacy (fleas dead or moribund)” value [6] was 100%.
In the case of O=C(C=C1NCCCN1Cc1ccc(F)nc1)C(F)(F)F [Example I-6], the “efficacy (seedlings grown)” value [3] is reported as 100%, the mortality ([4]; 20 ppm) is reported as 100% and the “efficacy (fleas dead or moribund)” value [6] is reported as 100%.
With O=C(C=C1NCCCN1Cc1ccc(Cl)nc1)C(F)(F)F [Example I-7] the mortality [11] was 100%, the mortality [5] was 90% and the “efficacy (fleas dead or moribund)” value [6] was 100%.
For O=C(C=C1NCCCN1Cc1ccc(Br)nc1)C(F)(F)F [Example I-8], the mortality ([7]; 20 ppm, after 5 days, oral) was 100%, the mortality ([8]; 500 g/ha, after 4 days, rice plants) was 100% and the “efficacy (seedlings grown)” value [3] was 100%. For the same compound, the mortality ([9]; 500 g/ha, after 4 days, larvae on barley plants) was 90%, the mortality ([4]; 20 ppm) was 100% and the mortality [11] was 100%. For the same compound, the mortality [5] was 90% and the “efficacy (fleas dead or moribund)” value [6] was 100%.
